Reference: patent US20240287070A1, “FUSED HETEROCYCLIC DERIVATIVES” (Janssen Sciences Ireland Unlimited Company, priority 2021, published 2024)

Legend:
[1] = tested on: HBV (HepG2.117 cell line, inducibly HBV producing); assay: Anti-HBV activity, intracellular HBV DNA by real-time PCR in HepG2.117 cell line; format: cell-based, hepatitis B virus; details: HepG2.117 cells, 3 days of treatment
Procedure, shortened: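 Read-out is intracellular HBV DNA, measured by real-time PCR using HBV-specific primers and probe. Cells were stable, inducible HBV-producing HepG2.117 (Tet-off). Serially diluted compound was applied for 3 days after replication was induced.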

HepG2 or HepG2.117 cells = assay: Cytotoxicity, ATPlite Luminescence Assay; format: cell-based, human; details: 3-days incubation unless marked with *
Procedure, shortened: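 Cells were exposed to compounds for 3 or 4 days, after which viability was determined by ATP-based luminescence (ATPlite).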

[2] = Human liver microsome stability; format: in vitro ADME; details: 1 μM compound, NADPH 1 mM, 37° C., 0-60 min; for HLM Metabolism t1/2: pooled human liver microsomes 0.5 mg/mL
Procedure, shortened: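 Single incubations with human liver microsomes started with 1 mM NADPH; samples taken at 0, 5, 10, 20, 40 and 60 min, quenched in acetonitrile (1:3). Cassette LC-MS analysis with internal standard; t½ derived from slope of ln peak-area ratio versus time (k = −gradient).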

| Structure (SMILES) | EC50 [1] [µM] | CC50 (HepG2 or HepG2.117 cells) [µM] | HLM Metabolism t1/2 [2] [min] | half-life at 1 μM ([2]; human, pooled human liver microsomes, pH 7.4, pooled human liver microsomes 0.5 mg/mL, read-out: HLM Metabolism t1/2) [min] |
| --- | --- | --- | --- | --- |
| CC(c1ccc(C#N)cc1)N1C[C@@H](C)n2nc3c(c2C1=O)CN(C(=O)c1ccc(Cl)c(Cl)c1)[C@H](C)C3 (single isomer, unassigned) [Compound 66B, 4-((S*)-1-((3R,7R)-2-(3,4-dichlorobenzoyl)-3,7-dimethyl-10-oxo-1,3,4,7,8,10-hexahydropyrido[4′,3′:3,4]pyrazolo[1,5-a]pyrazin-9(2H)-yl)ethyl)benzonitrile] | 0.017 | 19.1 | >180 | – |
| CC(c1ccc(NS(C)(=O)=O)cn1)N1C[C@@H](C)n2nc3c(c2C1=O)CN(C(=O)c1ccc(Cl)c(C(F)(F)F)c1)[C@H](C)C3 (single isomer, unassigned) [Compound 33B, N-(6-((S*)-1-((3R,7R)-2-(4-chloro-3-(trifluoromethyl)benzoyl)-3,7-dimethyl-10-oxo-1,3,4,7,8,10-hexahydropyrido[4′,3′:3,4]pyrazolo[1,5-a]pyrazin-9(2H)-yl)ethyl)pyridin-3-yl)methanesulfonamide] | 0.043 | > 50 | >180 | – |
| CC(c1ccn(CC(F)(F)F)c(=O)c1)N1C[C@@H](C)n2nc3c(c2C1=O)CN(C(=O)c1ccc(Cl)c(Cl)c1)[C@H](C)C3 (single isomer, unassigned) [Compound 51B, (3R,7R)-2-(3,4-dichlorobenzoyl)-3,7-dimethyl-9-((S*)-1-(2-oxo-1-(2,2,2-trifluoroethyl)-1,2-dihydropyridin-4-yl)ethyl)-1,2,3,4,8,9-hexahydropyrido[4′,3′:3,4]pyrazolo[1,5-a]pyrazin-10(7H)-one] | 0.028 | > 50 | >180 | – |
| C[C@@H]1Cc2nn3c(c2CN1C(=O)c1ccc(Cl)c(C(F)(F)F)c1)C(=O)N([C@H](C)c1ccc([S@](C)(=O)=NC#N)cc1)C[C@H]3C (relative stereo) [Compound 20B, N—((S*)-(4-((R*)-1-((3R,7R)-2-(4-chloro-3-(trifluoromethyl)benzoyl)-3,7-dimethyl-10-oxo-1,3,4,7,8,10-hexahydropyrido[4′,3′:3,4]pyrazolo[1,5-a]pyrazin-9(2H)-yl)ethyl)phenyl)(methyl)(oxo)-16-sulfaneylidene)cyanamide] | 0.089 | > 50 | 156 | – |
| CC(c1ccc(C(C)(C)O)nc1)N1C[C@@H](C)n2nc3c(c2C1=O)CN(C(=O)c1ccc(Cl)c(Cl)c1)[C@H](C)C3 (single isomer, unassigned) [Compound 2B, (3R,7R)-2-(3,4-dichlorobenzoyl)-9-((S*)-1-(6-(2-hydroxypropan-2-yl)pyridin-3-yl)ethyl)-3,7-dimethyl-1,2,3,4,8,9-hexahydropyrido[4′,3′:3,4]pyrazolo[1,5-a]pyrazin-10(7H)-one] | 0.015 | > 50 | 138 | – |
| CC(c1cnc(C(F)(F)F)cn1)N1C[C@@H](C)n2nc3c(c2C1=O)CN(C(=O)c1ccc(Cl)c(Cl)c1)[C@H](C)C3 (single isomer, unassigned) [Compound 7A, (3R,7R)-2-(3,4-dichlorobenzoyl)-3,7-dimethyl-9-((R*)-1-(5-(trifluoromethyl)pyrazin-2-yl)ethyl)-1,2,3,4,8,9-hexahydropyrido[4′,3′:3,4]pyrazolo[1,5-a]pyrazin-10(7H)-one] | 0.52 | 44.8 | – | > 180 |
| CC(c1ccc(C(C)(C)O)nc1)N1C[C@@H](C)n2nc3c(c2C1=O)CN(C(=O)c1ccc(Cl)c(C#N)c1)[C@H](C)C3 (single isomer, unassigned) [Compound 63B, 2-chloro-5-((3R,7R)-9-((S*)-1-(6-(2-hydroxypropan-2-yl)pyridin-3-yl)ethyl)-3,7-dimethyl-10-oxo-1,2,3,4,7,8,9,10-octahydropyrido[4′,3′:3,4]pyrazolo[1,5-a]pyrazine-2-carbonyl)benzonitrile] | 0.052 | > 50 | >180 | – |
| Cc1nnn(-c2ccc(C(C)N3C[C@@H](C)n4nc5c(c4C3=O)CN(C(=O)c3ccc(Cl)c(Cl)c3)[C@H](C)C5)cn2)n1 (single isomer, unassigned) [Compound 26B, (3R,7R)-2-(3,4-dichlorobenzoyl)-3,7-dimethyl-9-((S*)-1-(6-(5-methyl-2H-tetrazol-2-yl)pyridin-3-yl)ethyl)-1,2,3,4,8,9-hexahydropyrido[4′,3′:3,4]pyrazolo[1,5-a]pyrazin-10(7H)-one] | 0.02 | > 50 | 67.8 | – |
| CC(c1ccc(-n2cncn2)nc1)N1C[C@@H](C)n2nc3c(c2C1=O)CN(C(=O)c1ccc(Cl)c(Cl)c1)[C@H](C)C3 (single isomer, unassigned) [Compound 5B, (3R,7R)-9-((S*)-1-(6-(1H-1,2,4-triazol-1-yl)pyridin-3-yl)ethyl)-2-(3,4-dichlorobenzoyl)-3,7-dimethyl-1,2,3,4,8,9-hexahydropyrido[4′,3′:3,4]pyrazolo[1,5-a]pyrazin-10(7H)-one] | 0.017 | 28.4 | 125 | – |
| CC(c1ccc(-n2cncn2)cc1)N1C[C@@H](C)n2nc3c(c2C1=O)CN(C(=O)c1ccc(Cl)c(C#N)c1)[C@H](C)C3 (single isomer, unassigned) [Compound 11B, 5-((3R,7R)-9-((S*)-1-(4-(1H-1,2,4-triazol-1-yl)phenyl)ethyl)-3,7-dimethyl-10-oxo-1,2,3,4,7,8,9,10-octahydropyrido[4′,3′:3,4]pyrazolo[1,5-a]pyrazine-2-carbonyl)-2-chlorobenzonitrile] | 0.032 | > 50 | >180 | – |
| CC(c1ccc(S(C)(=O)=O)cc1)N1C[C@@H](C)n2nc3c(c2C1=O)CN(C(=O)c1ccc(Cl)c(Cl)c1)[C@H](C)C3 (single isomer, unassigned) [Compound 15B, (3R,7R)-2-(3,4-dichlorobenzoyl)-3,7-dimethyl-9-((S*)-1-(4-(methylsulfonyl)phenyl)ethyl)-1,2,3,4,8,9-hexahydropyrido[4′,3′:3,4]pyrazolo[1,5-a]pyrazin-10(7H)-one] | 0.019 | > 50 | >180 | – |
| CC(c1ccc(N2CCCS2(=O)=O)nc1)N1C[C@@H](C)n2nc3c(c2C1=O)CN(C(=O)c1ccc(Cl)c(C(F)(F)F)c1)[C@H](C)C3 (single isomer, unassigned) [Compound 28B, (3R,7R)-2-(4-chloro-3-(trifluoromethyl)benzoyl)-9-((S*)-1-(6-(1,1-dioxidoisothiazolidin-2-yl)pyridin-3-yl)ethyl)-3,7-dimethyl-1,2,3,4,8,9-hexahydropyrido[4′,3′: 3,4]pyrazolo[1,5-a]pyrazin-10(7H)-one] | 0.011 | > 50 | 142 | – |
| CC(c1ccc(C(C)(C)O)nc1)N1C[C@@H](C)n2nc3c(c2C1=O)CN(C(=O)c1cc(Cl)c(Cl)cn1)[C@H](C)C3 (single isomer, unassigned) [Compound 57B, (3R,7R)-2-(4,5-dichloropicolinoyl)-9-((S*)-1-(6-(2-hydroxypropan-2-yl)pyridin-3-yl)ethyl)-3,7-dimethyl-1,2,3,4,8,9-hexahydropyrido[4′,3′:3,4]pyrazolo[1,5-a]pyrazin-10(7H)-one] | 0.65 | > 50 | 101 | – |
| CC(c1ncccn1)N1C[C@@H](C)n2nc3c(c2C1=O)CN(C(=O)c1ccc(Cl)c(Cl)c1)[C@H](C)C3 (single isomer, unassigned) [Compound 39B, (3R,7R)-2-(3,4-dichlorobenzoyl)-3,7-dimethyl-9-((S*)-1-(pyrimidin-2-yl)ethyl)-1,2,3,4,8,9-hexahydropyrido[4′,3′:3,4]pyrazolo[1,5-a]pyrazin-10(7H)-one] | 0.035 | > 25 | >180 | – |
| CC(c1ccc(C(C)(C)O)nc1)N1C[C@@H](C)n2nc3c(c2C1=O)CN(C(=O)c1cc(C(F)(F)F)c(Cl)cn1)[C@H](C)C3 (single isomer, unassigned) [Compound 58B, (3R,7R)-2-(5-chloro-4-(trifluoromethyl)picolinoyl)-9-((S*)-1-(6-(2-hydroxypropan-2-yl)pyridin-3-yl)ethyl)-3,7-dimethyl-1,2,3,4,8,9-hexahydropyrido[4′,3′:3,4]pyrazolo[1,5-a]pyrazin-10(7H)-one] | 0.19 | > 50 | >180 | – |
| CC(c1cnc(NC2CC2)nc1)N1C[C@@H](C)n2nc3c(c2C1=O)CN(C(=O)c1ccc(Cl)c(Cl)c1)[C@H](C)C3 (single isomer, unassigned) [Compound 37B, (3R,7R)-9-((S*)-1-(2-(cyclopropylamino)pyrimidin-5-yl)ethyl)-2-(3,4-dichlorobenzoyl)-3,7-dimethyl-1,2,3,4,8,9-hexahydropyrido[4′,3′:3,4]pyrazolo[1,5-a]pyrazin-10(7H)-one] | 0.041 | > 50 | 53.5 | – |
| CC(c1cnc(C(F)(F)F)nc1)N1C[C@@H](C)n2nc3c(c2C1=O)CN(C(=O)c1ccc(Cl)c(Cl)c1)[C@H](C)C3 (single isomer, unassigned) [Compound 34B, (3R,7R)-2-(3,4-dichlorobenzoyl)-3,7-dimethyl-9-((S*)-1-(2-(trifluoromethyl)pyrimidin-5-yl)ethyl)-1,2,3,4,8,9-hexahydropyrido[4′,3′:3,4]pyrazolo[1,5-a]pyrazin-10(7H)-one] | 0.052 | 34.9 | >180 | – |
